The text below walks through data of ChEMBL document CHEMBL1201862, “PubChem BioAssay data set” (2004).

Calls of active or inactive are those of the source.

The target in experiment [1] is Galanin receptor type 3 (Homo sapiens, UniProt O60755). Description: Fluorescence-based cell-based primary high throughput dose response assay to identify antagonists of the Galanin Receptor 3 (GalR3). Format: functional.
The nature of experiment [2]: cells. Type of experiment: functional, cell-based. Conditions: HEK-CNG.
A short description of experiment [3]: viability loss in Vero cells – cell-based, purified and synthesized samples, set 8, cytotoxicity control for M. tuberculosis inhibitor project (AID 602431). Format: functional. Conditions: Mycobacterium tuberculosis.
Experiment [4] is described as follows: THP-1 cell cytotoxicity, cytotoxicity control, set 6 (AID 602433). Type of experiment: functional. Conditions: Mycobacterium tuberculosis.
Experiment [5] is described as follows: human cervical cancer cell viability loss – 24 h, plate reader, dry powder, cytotoxicity control, dose response (AID 686928). Format: functional, cell-based. Conditions: HeLa.
A short description of experiment [6]: Luminescence Cell-Based Dose Response HTS to Identify Activators of Luciferase Translation or Activity in H4 […] Cells. [Related pubchem assays: 1829 (Project Summary), 1814 (Primary HTS)]. Format: functional.
Experiment [7] in a line: IC50 of Artemis nuclease activity blockers – biochemical, fluorescence intensity, dose response (AID 720701).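 Further: Artemis endonuclease enzyme.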 Type of experiment: functional.
Experiment [8] can be described thus: activation of miR-122 Renilla sensor silencing – cell-based, Huh7 psiCHECK-miR122, Renilla luciferase, cherry-picked, dose response (AID 651956).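 Further: huh7 hepatoma cells stably carrying a psiCHECK-2 miR-122 sensor plasmid; renilla luciferase signal reporting endogenous miR-122 activity after 48 h compound exposure.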 Format: functional.
A short description of experiment [9]: inhibitors of EBV LMP1 NF-kappaB signaling – cell-based, luciferase reporter, luminescence, dry powder, set 2, dose response (AID 624376). Type of experiment: functional. In general terms: Reporter assays use an easily measured gene product as a stand-in for the process of interest.
Experiment [10] can be described thus: LMP1-induced NF-kB luciferase signal inhibition – cell-based, EBV LMP1, dry powder, set 2, dose response (AID 624361). Type of experiment: functional.
The target of experiment [11] is Paired box protein Pax-8 (Homo sapiens, UniProt Q06710). Briefly: PAX8 transcriptional activity inhibition in RMG-I – RMG-I cells, luciferase, cherry-pick, dose response (AID 687027).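 Further: luciferase reporter driven by Pax8 target thyroperoxidase promoter measured by SteadyGlo luminescence.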 Type of experiment: functional, cell-based.
Chain of Paired box protein Pax-8 (Q06710 whole entry): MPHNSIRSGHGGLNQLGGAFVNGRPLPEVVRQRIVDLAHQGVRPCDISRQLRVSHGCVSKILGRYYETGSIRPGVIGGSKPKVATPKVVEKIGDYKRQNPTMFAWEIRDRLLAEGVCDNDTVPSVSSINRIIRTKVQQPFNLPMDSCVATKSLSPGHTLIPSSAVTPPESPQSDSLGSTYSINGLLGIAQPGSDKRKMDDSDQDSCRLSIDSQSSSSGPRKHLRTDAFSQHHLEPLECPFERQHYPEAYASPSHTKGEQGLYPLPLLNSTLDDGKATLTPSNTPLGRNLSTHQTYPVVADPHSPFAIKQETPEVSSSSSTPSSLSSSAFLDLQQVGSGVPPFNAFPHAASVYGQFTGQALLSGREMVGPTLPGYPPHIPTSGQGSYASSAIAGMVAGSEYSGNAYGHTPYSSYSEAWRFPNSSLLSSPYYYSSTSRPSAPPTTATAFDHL
The nature of experiment [12]: toxicity toward immortalized ovarian surface epithelium – cell-based, plate reader, dry powder samples, cytotoxicity control for PAX8 inhibitor project, dose response (AID 743045). Format: functional.
Experiment [13] can be described thus: A2780 cell killing – plate reader, dry powder samples, cytotoxicity control, dose response (AID 743046). Format: functional, cell-based.
A short description of experiment [14]: OVCAR-3 cell viability loss – plate reader, dry powder samples, PAX8 inhibitor project, dose response (AID 743044). Type of experiment: functional, cell-based.
Experiment [15] is described as follows: IGROV1 cell killing – plate reader, dry powder samples, PAX8 inhibitor project, dose response (AID 743043). Format: functional, cell-based. Conditions: IGROV-1.
A short description of experiment [16]: OVCAR8 cell viability loss – plate reader, dry powder samples, PAX8 project, dose response (AID 743197). Conditions: OVCAR-8. Format: functional, cell-based.
A short description of experiment [17]: T. cruzi growth inhibition in host cells, dose response, cell-based, plate reader, dry powder, set 2 (AID 652275). Type of experiment: functional.
Experiment [18] is described as follows: Trypanosoma cruzi replication inhibitors in host cells – cell-based, plate reader, dry powder samples, dose response (AID 651845). Format: functional.
Experiment [19] in a line: anti-trypanosomal activity in BESM host cells – imaging, CA-I/72 strain, bovine embryo skeletal muscle, dry powder, dose response (AID 651885). Type of experiment: functional, cell-based.
Experiment [20] can be described thus: MITF Orthogonal Assay: SK-MEL-5 CTG Assay Measured in Cell-Based System Using Plate Reader - 2084-02_Inhibitor_Dose_DryPowder_Activity_Set7. Format: functional.
Experiment [21] in a line: MITF: Counter assay: A375 proliferation Measured in Cell-Based System Using Plate Reader - 2084-03_Inhibitor_Dose_DryPowder_Activity_Set8. Type of experiment: functional. Conditions: A-375.
Experiment [22] can be described thus: inhibitors of TRPM1-promoter reporter in SK-MEL-5 – cell-based, luciferase, dry powder, set 8, MITF inhibitor project, dose response (AID 624430). Type of experiment: functional.
Experiment [23] can be described thus: Late stage assay provider results from the probe development effort to identify selective inhibitors of heat shock protein 90 (HSP90): Absorbance-based cell proliferation assay in SKBR3 cells. Conditions: SK-BR-3. Format: functional.
The nature of experiment [24]: Late stage assay provider results from the probe development effort to identify selective inhibitors of heat shock protein 90 (HSP90): Absorbance-based cell proliferation assay in MCF7 cells. Type of experiment: functional.
The nature of experiment [25]: Counterscreen for […] of the human trace amine associated receptor 1 (TAAR1): Fluorescence-based cell-based high throughput dose response assay to identify nonselective Ga16 agonists. Type of experiment: functional. For orientation: A counterscreen serves to expose hits that act by an unwanted route or on another target.
For experiment [26], the target named is T1, Trace amine-associated receptor 1 (Homo sapiens, UniProt Q96RJ0).
T1 sequence (Q96RJ0 whole entry): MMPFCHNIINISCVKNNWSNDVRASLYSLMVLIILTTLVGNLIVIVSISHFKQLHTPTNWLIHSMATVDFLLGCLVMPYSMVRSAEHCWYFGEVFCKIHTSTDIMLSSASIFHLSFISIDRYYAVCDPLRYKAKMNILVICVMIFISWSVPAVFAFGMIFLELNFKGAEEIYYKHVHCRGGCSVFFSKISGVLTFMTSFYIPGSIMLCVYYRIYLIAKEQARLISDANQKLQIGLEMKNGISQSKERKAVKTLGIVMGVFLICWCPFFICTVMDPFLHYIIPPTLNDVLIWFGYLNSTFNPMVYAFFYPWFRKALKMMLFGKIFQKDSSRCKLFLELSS
Description: Fluorescence-based cell-based high throughput dose response assay to identify antagonists of the human trace amine associated receptor 1 (TAAR1). Format: functional.

A short description of experiment [27]: Counterscreen for antagonists of the human trace amine associated receptor 1 (hTAAR1): Fluorescence-based cell-based high throughput dose response assay to identify nonselective Ga16 antagonists. Format: functional.
Experiment [28] deals with T1, Trace amine-associated receptor 1. Description: Counterscreen for antagonists of the human trace amine associated receptor 1 (hTAAR1): Fluorescence-based cell-based high throughput dose response assay to identify TAAR1 Agonists. Type of experiment: functional.

Chain of Galanin receptor type 3 (O60755 whole entry): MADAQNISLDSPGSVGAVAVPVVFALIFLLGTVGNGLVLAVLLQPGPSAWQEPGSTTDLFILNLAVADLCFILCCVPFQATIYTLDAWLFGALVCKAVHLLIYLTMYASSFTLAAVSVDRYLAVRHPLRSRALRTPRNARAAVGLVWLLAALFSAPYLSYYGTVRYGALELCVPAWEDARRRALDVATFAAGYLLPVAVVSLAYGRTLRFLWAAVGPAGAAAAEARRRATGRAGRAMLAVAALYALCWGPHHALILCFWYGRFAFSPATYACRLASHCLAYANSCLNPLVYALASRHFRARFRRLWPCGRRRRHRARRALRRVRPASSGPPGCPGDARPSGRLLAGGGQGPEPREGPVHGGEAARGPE

The IC50 is the point on the concentration scale where inhibition reaches its midpoint. Usually EC50 stands for the midpoint of the concentration-response curve. As to `Cc1onc(-c2ccccc2Cl)c1C(=O)NNC(=O)c1cccc(F)c1`, the IC50 in experiment [1] was > 29.9 µM (inactive). In addition, in experiment [2], the EC50 is > 29.9 µM (inactive).
For orientation: CC50 means the concentration that lowers cell viability or growth by half. Broadly, the AC50 is the concentration at which the activity in the assay is half-maximal. With `O=C(CSc1nc2ccccc2c(=O)[nH]1)NC1CCCCC1`, the CC50 in experiment [3] and in [4] was > 100 µM (inconclusive) throughout. Besides, the AC50 in experiment [5] is > 160 µM (inactive).
In the case of `Nc1ccc2[nH]c(-c3ccccn3)nc2c1`, the EC50 in experiment [6] is 24.6 µM (active). The IC50 in experiment [7] is 16.7 µM (active).
`COc1ccccc1C#Cc1cnc2c(c1)C(=O)N([C@H](C)CO)C[C@H](C)[C@@H](CN(C)C(=O)c1ccc3c(c1)OCO3)O2`: the AC50 in experiment [8] is 13.6 µM (active). For the same compound, the AbsAC35 in experiment [9] came out at 52.21 µM; in experiment [10], 41.32 µM.
In the case of `Cc1ccc(S(=O)(=O)Nc2ccc3c(c2)C(=O)N([C@H](C)CO)C[C@H](C)[C@@H](CN(C)S(=O)(=O)c2ccc(F)cc2)OCCCC[C@H](C)O3)cc1`, the AC50 in experiment [11] was 2.11 µM (active); in [12], 6.87 µM (active); in experiment [13] it was 7.45 µM (active); in [14] it was 9 µM (active); in [15], 14.8 µM (active); in experiment [16], 11 µM (active).
Take `CC(C)N1C[C@H](C)[C@@H](CN(C)Cc2ccccc2)Oc2c(NC(=O)c3ccncc3)cccc2C1=O`: the AC50 in experiment [17] and in experiment [18] was 0.00035 µM (active) throughout. In [19], the IC50 is 0.0026 µM (active).
As for `O=C1C=C(Nc2cccc(Cl)c2)C(=O)c2ccccc21`, the AC50 in experiment [20] is 0.683 µM (active); in experiment [21] it was 22.3 µM (active); in experiment [22], 23.9 µM (active).
`O=C(O)c1cccc(COc2ccc3cc(Br)c(=O)oc3c2)c1`: the IC50 in experiment [23] and in experiment [24] was > 100 µM (inactive) each time.
In the case of `CSC(=S)N/N=C/c1c[nH]c2ccccc12`, the EC50 in [25] and in experiment [28] was > 29.9 µM (inactive) each time. In addition, the IC50 was 2.6 µM (active) in experiment [26] and 28.1 µM (inactive) in [27].
